Measurements: patent US7438931B2, “Methods and compositions for the treatment of angiogenic diseases” (The Regents of The University of Michigan, priority 1998, dated 2008)
“And” between values parts separate entries of the source, which are not always exact repeats. Equal values may be shown once.

Assays:
Phase I trial: toxicity = type: in vivo, human
Description: Six patients were to be enrolled at each dose level. After 4 patients were enrolled at level I, if one patient experienced dose-limiting toxicity (DLT) (defined as Hct<80% of baseline), 2 more patients were enrolled at level I. If no DLT was observed, patients were enrolled at the next dose level. Treatment was allowed to continue beyond induction of target copper deficiency, if the patients experienced a partial or complete clinical response or achieved clinical stable disease by the following definitions. Complete response is defined as the disappearance of all clinical and laboratory signs and symptoms of active disease. Partial response is defined as a 50% or greater reduction in the size of measurable lesions defined by the sum of the products of the longest perpendicular diameters of the lesions, with no new lesions or lesions increasing in size. Minor response is defined as a 25-49% reduction in the sum of the products of the longest perpendicular diameters of one or more measurable lesions, no increase in size of any lesions and no new lesions; stable disease is any change in tumor measurements not represented by the criteria for response or progressive disease, which is defined as an increase of 25% or more in the sum of the products of the longest perpendicular diameters of any measurable indicator lesions, compared to the smallest previous measurement or appearance of a new lesion. Because copper deficiency is not a cytotoxic treatment modality, the patients who provide information about the efficacy of TM for long-term therapy, in this population of patients with advanced cancer, are primarily those who remained within the target Cp window of (20±10)% of baseline for over 90 days, without disease progression
Complete blood counts, liver and renal function tests, urinalyses, and Cp level (by the oxidase method) were performed weekly for 16 weeks, then bi-weekly. Physical examinations and evaluations of toxicity were carried out every 2 weeks for 8 weeks, then every 4 weeks for the duration of therapy. Toxicity was evaluated using the National Cancer Institute Common Toxicity Criteria (Table 3). […] Nevertheless, therapy will be discontinued and the patient removed from the study if grade 3 or higher toxicities of any type are observed, whatever the probable etiology. For grade 2 toxicities, an attempt will be made to establish their etiology.

Serum ceruloplasmin (Cp) = assay: Phase I trial: serum ceruloplasmin as surrogate marker of total-body copper; type: in vivo, human
Procedure: Three dose regimens were evaluated. All dose levels consisted of TM 20 mg given 3 times daily with meals plus an escalating (levels I, II, and III) in-between meal dosing, given 3 times daily, for a total of 6 doses per day. Loading dose levels I, II, and III provided TM at 10 mg, 15 mg, and 20 mg, 3 times daily between meals, respectively, in addition to the 3 doses of 20 mg each, given with meals, at all dose levels.
Baseline Cp was taken as the nearest Cp measurement to day 1 of treatment, including day 1, since the blood was drawn pre-TM, for all patients. The target Cp reduction was defined as 20% of baseline Cp. Due to Cp assay variability of approximately 2%, a change of Cp to 22% of baseline was considered as achieving the desired reduction of copper. In addition, if the absolute Cp was less than 5 mg/dl, then the patient was considered as having reached the target Cp. No patient reached the target due to an absolute Cp of less that 5 mg/dl, without also being at least 78% reduced from baseline. After reaching the target copper deficient state, TM doses were individually tailored to maintain Cp within a target window of 70-90% reduction from baseline.
A method was required to monitor copper status easily and reliably, so that TM dose could be adjusted appropriately during this trial. With TM administration, serum copper is not a useful measure of total-body copper, because the TM-copper-albumin complex is not rapidly cleared, and the total serum copper (including the fraction bound to the TM-protein complex) actually increases during TM therapy (Brewer et al., 1991a; 1994b; 1996). The serum ceruloplasmin level obtained weekly was used as a surrogate measure of total-body copper status. The serum Cp level is controlled by Cp synthesis by the liver, which, in turn, is determined by copper availability to the liver (Linder et al., 1979). […] The serum Cp level is in the range of 20-35 mg/dl and 30-65 mg/dl for normal controls and cancer patients, respectively. The objective as this trial was to reduce Cp to or below 20% of baseline, and to maintain this level, within a window spanned by (20±10) % of the baseline Cp, with typical Cp values in the range of 7-12 mg/dl. Since there appears to be no untoward clinical effects from this degree of copper reduction, this level of copper deficiency has been termed “chemical copper deficiency”. The first indication of true clinical copper deficiency is a reduction in blood cell counts, primarily anemia, as copper is required for heme synthesis as well as cellular proliferation (Brewer et al., 1996). Thus, the copper deficiency objective of this trial was to reduce the Cp to 20% of baseline or below, without decreasing the patient's hematocrit or WBC to below 80% of the baseline value at entry.
Complete blood counts, liver and renal function tests, urinalyses, and Cp level (by the oxidase method) were performed weekly for 16 weeks, then bi-weekly. Physical examinations and evaluations of toxicity were carried out every 2 weeks for 8 weeks, then every 4 weeks for the duration of therapy. Toxicity was evaluated using the National Cancer Institute Common Toxicity Criteria (Table 3). As TM is not a cytotoxic drug at the doses employed, and it has already been given to humans without any other toxicities than the ones described in detail above, the majority of the toxicities listed in Table 3, should they arise, are not expected to be due to TM. Nevertheless, therapy will be discontinued and the patient removed from the study if grade 3 or higher toxicities of any type are observed, whatever the probable etiology. For grade 2 toxicities, an attempt will be made to establish their etiology.

[1] = initial TM doses 90 to 120 mg per day, six times per day regimen

Procedure for mammary tumors: The time of onset of tumors and the quality and quantity of tumor vessels between the treatment and control groups were compared.
The percentage of disease-free mice in the untreated control group was compared to a group of the same transgenic mice treated with 0.5-1.0 mg TM by gavage daily, starting at 100 days of age.

Substance: tetrathiomolybdate [TM]
- toxicities (Phase I trial: toxicity; Cp levels at or above 20% of baseline): no cardiac, pulmonary, GI, renal, hepatic, hematologic, infectious, skin, mucosal, or neurologic toxicities observed
- patients with mild (greater than 80% of baseline Hct) reversible anemia (Phase I trial: toxicity; Cp levels between 10-20% of baseline): 4 patients
- toxicity (Phase I trial: toxicity; Cp lowered to 10-20% of baseline for up to 17 months of treatment): remarkably non-toxic
- toxicity (Phase I trial: toxicity; Cp reduced to 15-20% of baseline): non-toxic
- only drug-related toxicity observed (Phase I trial: toxicity; in vivo): mild anemia in one patient
- toxicities on long-term maintenance (Phase I trial: toxicity; mild clinical copper deficiency over 8-15 months): No additional toxicities of any type were observed
- time for hematocrit to recover after stopping the drug (Phase I trial: toxicity; one patient, without transfusion): 5 to 7 days
- other adverse effect (Phase I trial: toxicity; several patients, within 30 minutes of TM ingestion): transient, occasional sulphur-smelling burping
- No. of Patients: Achieved Target Cp (Serum ceruloplasmin (Cp); 18 patients): 14
- No. of Patients: Did Not Achieve Target Cp (Serum ceruloplasmin (Cp); 18 patients): 4
- time to Cp 50% of baseline, mean (Serum ceruloplasmin (Cp); 90, 105 and 120 mg/day): 30 days
- time to Cp 50% of baseline, median (Serum ceruloplasmin (Cp); 90, 105 and 120 mg/day): 28 days
- time for further reduction to Cp levels of 5-10 mg/dl (Serum ceruloplasmin (Cp); after reduction to 50% of baseline): 20 to 30 days
- effect of increasing in-between meals dose on Cp decrease (Serum ceruloplasmin (Cp); from 10 mg 3× daily to 15 mg or 20 mg 3× daily): no significant effect on the rate of decrease of the Cp level
- No. of Patients: Target Cp <90 days (Serum ceruloplasmin (Cp); in vivo): 8/14
- No. of Patients: Target Cp >90 days (Serum ceruloplasmin (Cp); in vivo): 6/14
- patients maintained at the target Cp for more than 90 days (Serum ceruloplasmin (Cp); in vivo): 39 % of those treated
- time to rapid rise in Cp when TM was discontinued (Serum ceruloplasmin (Cp); in vivo): ≤ 48 h
- patients with serum Cp lowered to 20% of baseline (Serum ceruloplasmin (Cp); [1]): 14 out of 18
- patients with serum Cp lowered to 50% of baseline (Serum ceruloplasmin (Cp); [1]): 17 out of 18
- reaching the target Cp (Serum ceruloplasmin (Cp); level III dose 120 mg/day): effective in reaching the target Cp, without added toxicity
- development of clinically overt tumors (mammary tumors; 0.5-1.0 mg TM by gavage daily from 100 days of age, median follow-up of 260 days): none of the TM-treated mice developed clinically overt tumors
- maximum tolerated dose (MTD) (mammary tumors; adult mice (average weight 32 grams), prolonged treatment): 1.0 mg/day
- outcome at higher doses (mammary tumors; animals who received 1.25-1.5 mg): died after 1-3 weeks of therapy
- shrinkage of well established mammary tumors (mammary tumors; control animals treated after tumors >1.5 cm, 2 of 3 cases): 25% and 50%
- anemia (mammary tumors; copper (Cp) decreased to below 40% of baseline): no anemia observed
- toxicity (mammary tumors; copper levels decreased to 10% of baseline): no clinically overt toxicity
- time to clinically overt mammary tumors after release from treatment (mammary tumors; cross-over group, previously disease-free): ≤ 18 days
- vascularization of micro-tumors in mammary glands (mammary tumors; microscopic analyses of TM-treated mice): none of the micro-tumors of the treated mice were vascularized
- ceruloplasmin (Cp) (mammary tumors; treatment group): below 40 % of baseline
